# Measured values published in patent US11331327B2, “Antibacterial use of halogenated salicylanilides” (UNION therapeutics A/S, priority 2014, dated 2022).
# Read-outs that look alike come from different tables or passages of the source.
# Tested on: S. aureus clinical isolates and S. aureus ATCC 29213
# Assay: MIC assay according to CLSI criteria, Example 2, S. aureus strains
# Assay type: cell-based, Staphylococcus aureus
# Settings: Staphylococcus aureus, read-out: MIC
# Description: Strains were conserved in Luria Bertani (LB) Broth (S. aureus) or Brain Heart Infusion (BHI) (S. pyogenes) supplemented with glycerol 15% (v/v) at −80° C., and reactivated by isolation on LB (S. aureus) or BHI (S. pyogenes) agar plates. Strains were cultivated in Mueller Hinton (MH) Broth-cation adjusted (S. aureus) or BHI (S. pyogenes). All strains were cultivated aerobically (microaerobically for S. pyogenes strains) at 37° C.
# Bacterial cultures were stopped in their exponential growth phase and plates were inoculated with the approximate concentration of 5×10^5 cells per well. Plates were incubated at 37° C. for 18 hours (S. aureus) or 24 hours (S. pyogenes).
smiles,measurement,setting,value
CC(=O)O[C@H]1C[C@@]2(C)[C@@H](C[C@@H](O)[C@H]3[C@@]4(C)CC[C@@H](O)[C@@H](C)[C@@H]4CC[C@@]32C)/C1=C(\CCC=C(C)C)C(=O)O [Fusidic acid],MIC,"ATCC 29213 / MRSA, strain MRSA 15",> 16 µg/mL
same,MIC,"ATCC 29213 / MRSA, strain MRSA 16",0.25 µg/mL
same,MIC,"ATCC 29213 / MRSA, strain MRSA 17",4 µg/mL
same,MIC,"ATCC 29213 / MRSA, strain MRSA 18",0.25 µg/mL
same,MIC,"ATCC 29213 / MRSA, strain MRSA 19",0.125 µg/mL
same,MIC,"ATCC 29213 / MRSA, strain MRSA 20",0.125 µg/mL
same,MIC,"ATCC 29213 / MRSA, strain MRSA 21",0.125 µg/mL
same,MIC,"ATCC 29213 / MRSA, strain MRSA 22",> 16 µg/mL
same,MIC,"ATCC 29213 / MRSA, strain MRSA 23",0.25 µg/mL
same,MIC,"ATCC 29213 / MRSA, strain MRSA 24",0.25 µg/mL
same,MIC,"ATCC 29213 / MRSA, strain MRSA 25",16 µg/mL
same,MIC,"ATCC 29213 / MRSA, strain MRSA 26",0.5 µg/mL
same,MIC,"ATCC 29213 / MRSA, strain MRSA 27",0.25 µg/mL
same,MIC,"ATCC 29213 / MRSA, strain MRSA 27b",8 µg/mL
same,MIC,"ATCC 29213 / MRSA, strain MRSA 28",0.06 µg/mL
same,MIC,"ATCC 29213 / MRSA, strain MRSA 29",4 µg/mL
same,MIC,"ATCC 29213 / MRSA, strain MRSA 30",0.125 µg/mL
same,MIC,"ATCC 29213 / MRSA, strain MRSA 31",0.25 µg/mL
same,MIC,"ATCC 29213 / MRSA, strain MRSA 32",0.5 µg/mL
same,MIC,"ATCC 29213 / MRSA, strain MRSA 33",0.5 µg/mL
same,MIC,"ATCC 29213 / MRSA, strain MRSA 34",0.25 µg/mL
same,MIC,"ATCC 29213 / MRSA, strain MRSA 35",16 µg/mL
same,MIC,"ATCC 29213 / MRSA, strain MRSA 36",8 µg/mL
same,MIC,"ATCC 29213 / MRSA, strain MRSA 37",0.5 µg/mL
same,MIC,"ATCC 29213 / MRSA, strain MRSA 38",8 µg/mL
same,MIC,"ATCC 29213 / MRSA, strain MRSA 39",8 µg/mL
same,MIC,"ATCC 29213 / MRSA, strain MRSA 40",0.125 µg/mL
same,MIC,"ATCC 29213 / MRSA, strain MRSA 41",> 16 µg/mL
same,MIC,"ATCC 29213 / MRSA, strain MRSA 42",0.25 µg/mL
same,MIC,"ATCC 29213 / MRSA, strain MRSA 43",0.125 µg/mL
same,MIC,"ATCC 29213 / MRSA, strain MRSA 44",4 µg/mL
same,MIC,"ATCC 29213 / MRSA, strain MRSA 45",0.06 µg/mL
same,MIC,"ATCC 29213 / MRSA, strain MRSA 46",0.06 µg/mL
same,MIC,"ATCC 29213 / MRSA, strain MRSA 47",0.06 µg/mL
same,MIC,"ATCC 29213 / MRSA, strain MRSA 48",2 µg/mL
same,MIC,"ATCC 29213 / MRSA, strain MRSA 49",0.25 µg/mL
same,MIC,"ATCC 29213 / MRSA, strain MRSA 50",0.03 µg/mL
same,MIC,"ATCC 29213 / MRSA, strain MRSA 51",0.13 µg/mL
same,MIC,"ATCC 29213 / MRSA, strain MRSA 52",0.06 µg/mL
same,MIC,"ATCC 29213 / MRSA, strain MRSA 53",0.25 µg/mL
same,MIC,"ATCC 29213 / MRSA, strain MRSA 54",0.125 µg/mL
same,MIC,"ATCC 29213 / MRSA, strain MRSA 55",4 µg/mL
same,MIC,"ATCC 29213 / MRSA, strain MRSA 56",0.06 µg/mL
same,MIC,"ATCC 29213 / MRSA, strain MRSA 57",0.125 µg/mL
same,MIC,"ATCC 29213 / MRSA, strain MRSA 58",4 µg/mL
same,MIC,"ATCC 29213 / MRSA, strain MRSA 59",0.06 µg/mL
same,MIC,"ATCC 29213 / MRSA, strain MRSA 60",8 µg/mL
same,MIC,"ATCC 29213 / MRSA, strain MRSA 61",0.06 µg/mL
same,MIC,"ATCC 29213 / MRSA, strain MRSA 62",0.06 µg/mL
same,MIC,"ATCC 29213 / MRSA, strain MRSA 63",0.125 µg/mL
same,MIC,"ATCC 29213 / MRSA, strain MRSA 64",0.25 µg/mL
same,MIC,"ATCC 29213 / MRSA, strain MRSA 65",0.06 µg/mL
same,MIC,"ATCC 29213 / MRSA, strain MRSA 66",0.06 µg/mL
same,MIC,"ATCC 29213 / MRSA, strain MRSA 67",0.25 µg/mL
same,MIC,"ATCC 29213 / MRSA, strain MRSA 68",0.125 µg/mL
same,MIC,"ATCC 29213 / MRSA, strain MRSA 69",4 µg/mL
same,MIC,"ATCC 29213 / MRSA, strain MRSA 70",8 µg/mL
same,MIC,"ATCC 29213 / MRSA, strain MRSA 71",0.06 µg/mL
same,MIC,"ATCC 29213 / MRSA, strain MRSA 72",16 µg/mL
same,MIC,"ATCC 29213 / MRSA, strain MRSA 73",0.25 µg/mL
same,MIC,"ATCC 29213 / MRSA, strain MRSA 74",0.25 µg/mL
same,MIC,"ATCC 29213 / MRSA, strain MRSA 75",0.5 µg/mL
same,MIC,"ATCC 29213 / MRSA, strain MRSA 76",0.25 µg/mL
same,MIC,"ATCC 29213 / MRSA, strain MRSA 77",16 µg/mL
same,MIC,"ATCC 29213 / MRSA, strain MRSA 78",0.125 µg/mL
same,MIC,"ATCC 29213 / MRSA, strain MRSA 79",0.5 µg/mL
same,MIC,"ATCC 29213 / MRSA, strain MRSA 80",0.125 µg/mL
same,MIC,"ATCC 29213 / MRSA, strain MRSA 81",0.25 µg/mL
same,MIC,"ATCC 29213 / MRSA, strain MRSA 82",8 µg/mL
same,MIC,"ATCC 29213 / MRSA, strain MRSA 83",0.06 µg/mL
same,MIC,"ATCC 29213 / MRSA, strain MRSA 84",8 µg/mL
same,MIC,"ATCC 29213 / MRSA, strain MRSA 85",4 µg/mL
same,MIC,"ATCC 29213 / MRSA, strain MRSA 86",> 16 µg/mL
same,MIC,"ATCC 29213 / MRSA, strain MRSA 87",0.125 µg/mL
same,MIC,"ATCC 29213 / MRSA, strain MRSA 88",0.06 µg/mL
same,MIC,"ATCC 29213 / MRSA, strain MRSA 89",0.06 µg/mL
same,MIC,"ATCC 29213 / MRSA, strain MRSA 90",16 µg/mL
same,MIC,"ATCC 29213 / MRSA, strain MRSA 91",0.25 µg/mL
same,MIC,"ATCC 29213 / MRSA, strain MRSA 92",8 µg/mL
same,MIC,"ATCC 29213 / MRSA, strain MRSA 93",0.02 µg/mL
same,MIC,"ATCC 29213 / MRSA, strain MRSA 94",0.125 µg/mL
same,MIC,"ATCC 29213 / MRSA, strain MRSA 95",8 µg/mL
same,MIC,"ATCC 29213 / MRSA, strain MRSA 96",0.125 µg/mL
same,MIC,"ATCC 29213 / MRSA, strain MRSA 97",8 µg/mL
same,MIC,"ATCC 29213 / MRSA, strain MRSA 98",0.06 µg/mL
same,MIC,"ATCC 29213 / MRSA, strain MRSA 99",0.125 µg/mL
same,MIC,"ATCC 29213 / MRSA, strain MRSA 100",0.125 µg/mL
same,MIC,"ATCC 29213 / MRSA, strain MRSA 101",8 µg/mL
same,MIC,"ATCC 29213 / MRSA, strain MRSA 102",0.06 µg/mL
same,MIC,"ATCC 29213 / MRSA, strain MRSA 103",8 µg/mL
same,MIC,"ATCC 29213 / MRSA, strain MRSA 104",0.25 µg/mL
same,MIC,"ATCC 29213 / MRSA, strain MRSA 105",0.125 µg/mL
same,MIC,"ATCC 29213 / MRSA, strain MRSA 106",0.125 µg/mL
same,MIC,"ATCC 29213 / MRSA, strain MRSA 107",0.25 µg/mL
same,MIC,"ATCC 29213 / MRSA, strain MRSA 108",4 µg/mL
same,MIC,"ATCC 29213 / MRSA, strain MRSA 109",0.25 µg/mL
same,MIC,"ATCC 29213 / MRSA, strain MRSA 110",0.06 µg/mL
same,MIC,"ATCC 29213 / MRSA, strain MRSA 111",8 µg/mL
same,MIC,"ATCC 29213 / MRSA, strain MRSA 112",0.06 µg/mL
same,MIC,"ATCC 29213 / MRSA, strain MRSA 113",0.125 µg/mL
same,MIC,"ATCC 29213 / MSSA, strain MSSA 01",4 µg/mL
same,MIC,"ATCC 29213 / MSSA, strain MSSA 02",4 µg/mL
same,MIC,"ATCC 29213 / NEWMAN, strain Newman",0.25 µg/mL
